Results on 2 compounds are retold here after patent US12558351B2, “Compositions and methods for enhancing cancer immune checkpoint therapy” (DUKE UNIVERSITY, priority 2019, dated 2026).

One assay relates to glioma. Conditions: preclinical models; Durant et al. Sci Adv 2018; cited from earlier work.
The test system of another assay is 4T1 tumor. The assay can be described thus: Tumor growth delay and survival, 4T1 tumors in Balb/c mice. It counts as in vivo. Particulars: 4T1, Balb/c; anti-PD1 100 μg/mouse days 6, 9, 12 or AZD1390 10 mg/kg daily days 4-14; FIGS. 27, 28. As for the experimental part:
(§1) All animal experiments conducted in this study were approved by Duke University Institutional Animal Use and Care Committee. C57BL/6J and Balb/C, mice were purchased from The Jackson Laboratory. NSG mice were purchased from Division of Laboratory Animal Resources (DLAR) of Duke University. Prior to tumor cell injection, age-matched 6-8 weeks old mice were shaved at one of the flanks. Tumor cells were then injected into shaved flanks subcutaneously with Lenti-CRISPRv2 modified control or target gene-specific knockout tumor cells. Tumor volumes were measured every 2-3 days and calculated by the formula: […]. The mice were sacrificed when tumors reached 2000 mm^3.
(§2) For antibody treatments, mice were given 100 μg antibody via intraperitoneal (i.p.) injection at day 6, 9, 12 post tumor cells injection using following antibodies: anti-PD1 (clone 29F.1A12) or isotype (clone 2A3) from BioXCell.

Assay [1] concerns p-TBK. The assay can be described thus: Western blot of p-TBK in B16 cells. It counts as cell-based, mouse. As for the experimental part:
(§3) Cells lysates were boiled in sodium dodecyl sulfate (SDS) sample loading buffer, resolved by 10% SDS-polyacrylamide gel electrophoresis (SDS-PAGE) and transferred to nitrocellulose. The membranes were blocked in 5% milk in Tris-buffered saline and Tween 20 (TBST; 10 mM Tris-HCl [pH 8.0], 150 mM NaCl, 0.1% Tween 20) for 1 hr at room temperature. After washing twice with TBST, the membranes were incubated with appropriate primary antibodies in BSA/TBST for overnight and then washed three times with TBST, probed with horseradish […] anti-immunoglobulin (1:5000 dilution) for 1 hr at room temperature. After three washes with TBST, immunoreacted products were visualized using enhanced chemiluminescence reagent and autoradiography.

Assay [2] deals with mitochondrial DNA (mtDNA) release. The assay can be described thus: Q-PCR of mtDNA in digitonin cytosolic extracts of B16F10 cells. Format: cell-based, mouse. Particulars: 1 μM AZD1390 for 48 hours, FIGS. 59, 60.
In another assay the target is ATM kinase (Homo sapiens, UniProt Q13315). Conditions: Durant et al. Sci Adv 2018; cited from earlier work.
The subject of assay [3] is pro-inflammatory cytokine genes involved in cellular innate immunity. As to the kind of experiment: Q-RT-PCR of cytokine mRNA in wild type 4T1 cells treated with ATM inhibitors. It counts as cell-based, mouse. Particulars: FIG. 10. As for the experimental part:
(§4) Total RNA was extracted from cells by use of RNeasy Mini Kit (Qiagen) according to manufacturer's instructions. RNA was subjected to cDNA synthesis with random hexamer primers using Superscript II reverse transcriptase (Invitrogen). Quantitative real-time PCR was performed using Quanti Test SYBR Green PCR Master Mix Kit (Qiagen). Primers used for different target genes are listed in the Sequences section herein.

The subject of the next assay is B16F10 melanoma. The assay can be described thus: Tumor growth delay and survival, B16F10 melanoma in C57BL/6 mice. It counts as in vivo, mouse. The procedure: as §1, §2
Another assay has as its system cGAS-STING. The assay can be described thus: Ethidium bromide mtDNA depletion, cGAS-STING activation in B16F10 cells. It counts as cell-based, mouse. Particulars: wild-type B16F10, 100 ng/ml ethidium bromide 20 days, then 1 μM AZD1390 48 hr; FIG. 103. As for the experimental part:
as §3
A previously published protocol was used (White, M. J. et al. Cell (2014) doi:10.1016/j.cell1.2014.11.036). Vector control, ATM KO and wild-type B16 cells were cultured in Dulbecco's modified Eagle's medium (DMEM) with 10% FBS. About 100 ng/ml ethidium bromide was added to the medium for 20 days before the cells were harvested for experiments.
Total RNA was extracted from cells by use of RNeasy Mini Kit (Qiagen) according to manufacturer's instructions. […] Quantitative real-time PCR was performed using Quanti Test SYBR Green PCR Master Mix Kit (Qiagen). […]

The test system of a further assay is ISGs. The assay can be described thus: qRT-PCR of ISGs in B16F10 cells. It counts as cell-based, mouse. The procedure:
as §4

Assay [4] relates to p-TBK. The assay can be described thus: Western blot of p-TBK in MDA-MB-231 cells. It counts as cell-based. Conditions: human MDA-MB-231 cells, Ku55933 for 6 hours; FIG. 91. As for the experimental part:
as §3

ATM kinase, sequence (Q13315 whole entry): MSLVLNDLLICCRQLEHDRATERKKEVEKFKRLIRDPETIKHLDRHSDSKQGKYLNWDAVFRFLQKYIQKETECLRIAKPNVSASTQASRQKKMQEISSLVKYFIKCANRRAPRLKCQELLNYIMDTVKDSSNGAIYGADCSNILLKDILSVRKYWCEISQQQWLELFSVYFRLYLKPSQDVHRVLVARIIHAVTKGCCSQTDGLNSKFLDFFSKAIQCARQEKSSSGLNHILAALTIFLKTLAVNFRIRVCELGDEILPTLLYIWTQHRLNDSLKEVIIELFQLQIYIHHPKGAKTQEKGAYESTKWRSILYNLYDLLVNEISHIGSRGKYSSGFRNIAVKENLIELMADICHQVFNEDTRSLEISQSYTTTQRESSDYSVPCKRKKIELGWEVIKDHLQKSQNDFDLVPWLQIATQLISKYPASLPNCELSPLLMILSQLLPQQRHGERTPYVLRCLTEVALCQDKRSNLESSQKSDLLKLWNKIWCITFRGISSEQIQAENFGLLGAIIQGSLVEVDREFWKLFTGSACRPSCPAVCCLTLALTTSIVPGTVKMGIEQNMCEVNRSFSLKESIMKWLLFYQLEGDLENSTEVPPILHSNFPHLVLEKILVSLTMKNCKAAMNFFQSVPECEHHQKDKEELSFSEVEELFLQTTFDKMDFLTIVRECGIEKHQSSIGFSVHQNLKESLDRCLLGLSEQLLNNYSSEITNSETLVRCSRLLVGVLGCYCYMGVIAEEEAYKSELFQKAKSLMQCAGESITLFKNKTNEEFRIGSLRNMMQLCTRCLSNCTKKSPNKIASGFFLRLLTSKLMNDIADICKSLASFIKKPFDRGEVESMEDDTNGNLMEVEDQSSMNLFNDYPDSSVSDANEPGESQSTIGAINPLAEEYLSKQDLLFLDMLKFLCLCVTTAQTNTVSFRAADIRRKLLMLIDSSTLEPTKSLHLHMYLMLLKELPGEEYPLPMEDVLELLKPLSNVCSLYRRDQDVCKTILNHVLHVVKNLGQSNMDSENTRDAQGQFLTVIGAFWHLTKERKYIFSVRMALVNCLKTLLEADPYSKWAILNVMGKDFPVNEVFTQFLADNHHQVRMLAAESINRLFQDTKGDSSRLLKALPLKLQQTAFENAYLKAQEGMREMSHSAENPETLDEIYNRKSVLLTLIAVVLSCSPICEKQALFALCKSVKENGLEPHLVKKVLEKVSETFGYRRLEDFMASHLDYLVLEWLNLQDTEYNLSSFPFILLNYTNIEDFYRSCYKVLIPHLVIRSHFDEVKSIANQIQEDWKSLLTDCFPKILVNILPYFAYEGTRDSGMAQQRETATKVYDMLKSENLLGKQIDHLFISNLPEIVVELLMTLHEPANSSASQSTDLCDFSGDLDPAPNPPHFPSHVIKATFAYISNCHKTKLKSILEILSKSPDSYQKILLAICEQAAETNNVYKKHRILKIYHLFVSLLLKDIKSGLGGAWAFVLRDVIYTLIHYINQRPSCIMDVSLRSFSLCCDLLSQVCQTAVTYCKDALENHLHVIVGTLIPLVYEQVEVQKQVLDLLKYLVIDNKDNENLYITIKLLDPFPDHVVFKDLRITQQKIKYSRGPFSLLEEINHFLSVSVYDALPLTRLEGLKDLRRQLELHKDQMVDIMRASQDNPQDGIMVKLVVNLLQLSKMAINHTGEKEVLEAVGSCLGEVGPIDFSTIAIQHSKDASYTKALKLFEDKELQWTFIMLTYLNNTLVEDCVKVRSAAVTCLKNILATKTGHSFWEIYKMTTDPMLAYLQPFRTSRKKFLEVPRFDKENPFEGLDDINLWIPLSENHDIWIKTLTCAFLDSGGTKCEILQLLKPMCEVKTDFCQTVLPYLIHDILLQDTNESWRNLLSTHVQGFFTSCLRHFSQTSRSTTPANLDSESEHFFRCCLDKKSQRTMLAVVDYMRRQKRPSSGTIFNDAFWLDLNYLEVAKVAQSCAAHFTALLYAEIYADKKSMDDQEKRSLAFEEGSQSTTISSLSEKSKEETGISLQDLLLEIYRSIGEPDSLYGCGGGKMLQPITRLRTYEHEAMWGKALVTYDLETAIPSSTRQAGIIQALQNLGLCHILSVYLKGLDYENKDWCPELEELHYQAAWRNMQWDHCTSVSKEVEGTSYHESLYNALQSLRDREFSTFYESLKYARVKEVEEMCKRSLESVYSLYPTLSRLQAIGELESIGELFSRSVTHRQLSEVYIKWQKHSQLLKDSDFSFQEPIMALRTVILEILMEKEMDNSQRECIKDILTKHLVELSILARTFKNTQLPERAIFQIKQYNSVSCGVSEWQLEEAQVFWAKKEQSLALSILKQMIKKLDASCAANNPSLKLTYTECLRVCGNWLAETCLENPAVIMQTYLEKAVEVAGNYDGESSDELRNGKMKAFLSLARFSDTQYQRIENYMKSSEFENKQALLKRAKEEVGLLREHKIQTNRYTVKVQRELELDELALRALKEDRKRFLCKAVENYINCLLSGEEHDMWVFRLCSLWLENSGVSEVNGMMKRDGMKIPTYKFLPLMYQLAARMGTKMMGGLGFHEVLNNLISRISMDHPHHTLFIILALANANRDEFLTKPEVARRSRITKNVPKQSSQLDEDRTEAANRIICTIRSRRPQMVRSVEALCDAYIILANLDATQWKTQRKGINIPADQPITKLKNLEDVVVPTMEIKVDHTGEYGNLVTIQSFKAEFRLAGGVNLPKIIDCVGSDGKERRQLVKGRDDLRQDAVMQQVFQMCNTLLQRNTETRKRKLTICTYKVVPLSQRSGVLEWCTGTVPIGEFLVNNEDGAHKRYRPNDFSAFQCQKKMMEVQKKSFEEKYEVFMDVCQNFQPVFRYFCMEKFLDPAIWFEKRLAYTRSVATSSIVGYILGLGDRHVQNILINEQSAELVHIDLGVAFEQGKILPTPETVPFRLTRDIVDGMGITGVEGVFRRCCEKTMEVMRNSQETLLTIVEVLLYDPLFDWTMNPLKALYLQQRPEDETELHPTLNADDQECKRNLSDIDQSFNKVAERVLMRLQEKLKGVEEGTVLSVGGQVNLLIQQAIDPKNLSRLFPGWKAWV

Regarding `CC(C)n1c(=O)n(C)c2cnc3cc(F)c(-c4ccc(OCCCN5CCCCC5)nc4)cc3c21` [AZD1390], in the assay on glioma, the “enhancement of radiotherapy of glioma” value is “significantly enhanced radiotherapy of glioma”. Besides, the “effect on tumor growth, single agent” value in the assay on 4T1 tumor is given as “more significant tumor-suppressive effect”; in the assay on B16F10 melanoma (B16F10 tumors, C57BL/6, AZD1390 alone 10 mg/kg daily days 4-14, FIG. 25) it was “almost negligible effect”. In the assay on p-TBK [1] (AZD1390 at indicated concentrations for 48 hrs, FIG. 45), the “phosphorylation of TBK” value is given as “induced increased phosphorylation of TBK”. In assay [2], the “mitochondrial DNA (mtDNA) release” value is reported as “induced mitochondrial DNA (mtDNA) release”. The “ATM kinase inhibitor character” value at ATM kinase was “potent and selective”. In addition, the “pro-inflammatory cytokine gene expression” value in [3] was “induce the pro-inflammatory cytokine genes”. For the same compound, the “enhancement of anti-tumor efficacy of the anti-PD1 antibody” value in the assay with B16F10 melanoma (B16F10, C57BL/6, AZD1390 10 mg/kg daily days 4-14 plus anti-PD1 100 μg/mouse days 6, 9, 12, FIGS. 25, 26) is recorded as “significantly enhanced”. Also, the “enhancement of tumor suppression mediated by an anti-PD1 antibody” value in the assay on B16F10 melanoma (B16F10 melanoma, anti-PD1 100 μg/mouse and AZD1390 2.5 mg/Kg, FIG. 11) is given as “significantly enhanced tumor suppression”. Also, the “cGAS-STING activation (pTBK) induced by AZD1390 after EtBr-induced depletion of mtDNA” value in the assay with cGAS-STING is reported as “abrogated”. Also, in the assay on ISGs (1 μM AZD1390 for 48 hrs, FIG. 46), the “expression of ISGs” value is listed as “induced expression of ISGs”.

On to `O=c1cc(-c2cccc3c2Sc2ccccc2S3)oc(N2CCOCC2)c1` [Ku55933], for which, in the assay on p-TBK [4], the “expression of p-TBK” value was “induced expression of p-TBK”. Moreover, the “phosphorylation of TBK” value in the assay with p-TBK [1] (Ku55933 indicated concentrations 6 hours, or 5 μM at indicated times, FIGS. 88, 89) is “induced increased phosphorylation of TBK”. Moreover, the “pro-inflammatory cytokine gene expression” value in assay [3] is “induce the pro-inflammatory cytokine genes”. In addition, the “expression of ISGs” value in the assay with ISGs (10 μM Ku55933 for 9 hours (IFIT1, CCL5), FIG. 90) is “induced expression of ISGs”.
